Test results reported in patent publication US20140271820A1, “LIPOSOME OXALIPLATIN COMPOSITIONS FOR CANCER THERAPY” (priority 2013, published 2014).
Like-named read-outs stand apart in the source and are kept apart here.

Key:
[1] = pure lipid; cited from earlier work
HT29 = experiment: In vitro cytotoxicity, HT29; assay type: cell-based, human
Protocol: A number of commercially available and privately-acquired tumor cell lines were initially surveyed for their sensitivity to various platinum agents, including oxaliplatin. […] The cell lines were also surveyed for sensitivity to 5FU.
Two studies of the novel liposome formulation containing oxaliplatin were conducted in this tumor model.

[2] = system: human colon tumor cell lines; experiment: In vitro cytotoxicity survey, panel of human colon tumor cell lines; assay type: cell-based; settings: HT-29, all cell lines tested except HT29, 72 h
Protocol: (§1) A number of commercially available and privately-acquired tumor cell lines were initially surveyed for their sensitivity to various platinum agents, including oxaliplatin. […] The cell lines were also surveyed for sensitivity to 5FU. […] Additionally, literature survey was conducted in search of in vitro-generated oxaliplatin-resistant colorectal cell lines to potentially include pre-clinical pharmacology studies in an effort to show improved sensitivity of these cells to a liposomal vs. free oxaliplatin treatment. From this survey, […] other oxaliplatin-resistant colorectal tumor lines were identified; HT29 (Plascencia et al., 2006; Yang et al., 2006), and DLD-1 (Kashiwagi et al., 2011).

[3] = system: KB (epidermoid oral carcinoma human tumor) cells; experiment: In vitro cytotoxicity, KB cells
Protocol: (§2) Prior to initiation of this study, oxaliplatin was evaluated for drug tolerance in non-tumor bearing immunodeficient mice.

[4] = Drug tolerance in non-tumor bearing immunodeficient mice; assay type: in vivo
Protocol: as §2

KB xenograft tumors = experiment: Single-dose efficacy in mice bearing KB xenografts; assay type: in vivo, nude mice; settings: 15 mg/kg
Description: One-way ANOVA followed by Neuman-Keuls post hoc test.

HCT-116 cells = experiment: In vitro cytotoxicity survey, HCT-116; assay type: cell-based, human; settings: 72 h
Protocol: as §1

For `CCCCCCCC/C=C\CCCCCCCC(=O)O[C@H](COC(=O)CCCCCCCCCCCCCCC)COP(=O)([O-])OCC[N+](C)(C)C` [POPC, 1-palmitoyl-2-oleoyl-sn-glycero-3-phosphocholine], the “gel-liquid crystalline thermal transition temperature” value [1] is listed as “around −2 °C”.

For `O=c1[nH]cc(F)c(=O)[nH]1` [Sample 5FU, 5-fluorouracil], the IC50 (HT29; Homo sapiens, HT-29, HT29, 72 h) was > 50 µM and the IC50 [2] was 7 to 10 µM.

Work on `N.N.[Cl][Pt][Cl]` [cisplatin] yielded an IC50 ([3]; read-out: sensitivity (IC50), KB cell-line) of 4 µM.

For `O=C1[O][Pt]2([NH][C@@H]3CCCC[C@H]3[NH]2)[O]C1=O` [oxaliplatin, [(1R,2R)-cyclohexane-1,2-diamine](ethanedioato-O,O′)platinum(II)], the IC50 (HT29; HT29 and several other cell lines, 72 h) was 5 to 10 µM, the IC50 (HT29; HT29 cell line used in the present studies) was 5.4 µM and the “drug tolerance (in words)” value ([4]; doses above 15 mg/kg (i.e., 20 mg/kg)) was “dehydration and unacceptable gross body weight losses”. The “maximum tolerated dose (MTD)” value ([4]; mice) was 15 mg/kg, the IC50 ([3]; KB cell-line, 72 h) was 5.4 µM and the IC50 ([3]; KB cells, cytotoxicity testing prior to injection) was 5.3 µM. For the same molecule, the “tumor growth and survival compared to saline control (in words)” value (KB xenograft tumors) was “did not significantly inhibit tumor growth or increase survival”, the “Median Survival” value (KB xenograft tumors; KB xenografts) was 25.5 and the TGI (KB xenograft tumors; KB xenografts) was 0%. The IC50 (HCT-116 cells) was 0.4 µM.
